Patent US12486300B2, “Mithramycin oxime derivatives having increased selectivity and anti-cancer activity” (University of Kentucky Research Foundation, priority 2018, dated 2025)

system: TC32 Ewing sarcoma cells, expressing EWS-FLI1; experiment: Growth inhibition assay, TC32 cells; assay type: cell-based; conditions: ratio of GI50 PC3 to TC32
Method: Growth inhibition assay to assess cytotoxicity in ETS vs non-ETS expressing cells. Cells were seeded in clear 96-well plates (VWR, Radnor, PA). Seeding densities were optimized for each cell line to support 5 days of linear growth. Following a 24 hours attachment period, cells in duplicate wells were treated with half-log increments of respective compounds (0 nM and 0.3 nM-10 μM). Working stocks were prepared from an initial 10 mM drug stock diluted in either 100% ethanol or dimethyl sulfoxide (DMSO). All wells contained a final concentration of 0.1% (v/v) respective organic solvent. Immediately following treatment, cell viability was measured for vehicle control (Day 0) wells. Cell viability was measured in the remaining wells after 72 hours of incubation with compound or vehicle control (Day 3).
Percent viability, relative to the initial cell seeding concentration, was calculated by ((TreatmentDay3−Vehicle ControlDay0)/(Vehicle ControlDay3−Vehicle ControlDay0))×100. Percent cell viability was plotted as a function of compound concentration (Log [M]) and the data were fit using a 3-parameter non-linear model with fixed Hill slope constant and 4-parameter non-linear model with variable Hill slope constant. The model with the best curve fit was used to estimate the GI50 in GraphPad Prism 7.0 software (GraphPad Software, La Jolla, CA). The 3-parameter equation used was Y=Bottom+(Top−Bottom)/(1+10[…]((X−Log[IC50]))). The 4-parameter equation used was Y=Bottom+(Top−Bottom)/(1+10[…]((Log[IC50]−X)*Hillslope)). Top and Bottom are plateaus in the units of the Y-axis (response). IC50 is the response (Y-axis) halfway between Top and Bottom plateaus.
All compounds were tested at least once in multi-well replicates and each experiment included one a control compound (i.e., MTM) to ensure the stable response of the cell lines. The selectivity index was estimated by determining the ratio of GI50 estimates between ETS fusion negative and ETS fusion positive cell lines.

First: CON=C(C(O)C(C)O)C(OC)C1Cc2cc3cc(OC4CC(OC5CC(O)C(O)C(C)O5)C(O)C(C)O4)c(C)c(O)c3c(O)c2C(=O)C1OC1CC(OC2CC(OC3CC(C)(O)C(O)C(C)O3)C(O)C(C)O2)C(O)C(C)O1 (centres unmarked) [MTM (1)]
Second: CCON=C(C(O)C(C)O)C(OC)C1Cc2cc3cc(OC4CC(OC5CC(O)C(O)C(C)O5)C(O)C(C)O4)c(C)c(O)c3c(O)c2C(=O)C1OC1CC(OC2CC(OC3CC(C)(O)C(O)C(C)O3)C(O)C(C)O2)C(O)C(C)O1 (centres unmarked) [MTM (4)]
The “PC:TC32 (cellular selectivity)” value of the first is higher: 1.66 for the first, 1.15 for the second.

Going from `COC(C(=NOCc1ccccc1)C(O)C(C)O)C1Cc2cc3cc(OC4CC(OC5CC(O)C(O)C(C)O5)C(O)C(C)O4)c(C)c(O)c3c(O)c2C(=O)C1OC1CC(OC2CC(OC3CC(C)(O)C(O)C(C)O3)C(O)C(C)O2)C(O)C(C)O1` (centres unmarked) [MTM (2)] to `COC(C(=NOCC(=O)NCCc1ccccc1)C(O)C(C)O)C1Cc2cc3cc(OC4CC(OC5CC(O)C(O)C(C)O5)C(O)C(C)O4)c(C)c(O)c3c(O)c2C(=O)C1OC1CC(OC2CC(OC3CC(C)(O)C(O)C(C)O3)C(O)C(C)O2)C(O)C(C)O1` (centres unmarked) [MTM (29)], the “PC:TC32 (cellular selectivity)” value rises from 1.08 to 1.58.

First: COC(C(=NO)C(O)C(C)O)C1Cc2cc3cc(OC4CC(OC5CC(O)C(O)C(C)O5)C(O)C(C)O4)c(C)c(O)c3c(O)c2C(=O)C1OC1CC(OC2CC(OC3CC(C)(O)C(O)C(C)O3)C(O)C(C)O2)C(O)C(C)O1 (centres unmarked) [MTM (3)]
Second: C=CCON=C(C(O)C(C)O)C(OC)C1Cc2cc3cc(OC4CC(OC5CC(O)C(O)C(C)O5)C(O)C(C)O4)c(C)c(O)c3c(O)c2C(=O)C1OC1CC(OC2CC(OC3CC(C)(O)C(O)C(C)O3)C(O)C(C)O2)C(O)C(C)O1 (centres unmarked) [MTM (10)]
The “PC:TC32 (cellular selectivity)” value of the first is higher: 1.86 for the first, 1.10 for the second.

Going from `COC(C(=NOC[Si](C)(C)C)C(O)C(C)O)C1Cc2cc3cc(OC4CC(OC5CC(O)C(O)C(C)O5)C(O)C(C)O4)c(C)c(O)c3c(O)c2C(=O)C1OC1CC(OC2CC(OC3CC(C)(O)C(O)C(C)O3)C(O)C(C)O2)C(O)C(C)O1` (centres unmarked) [MTM (5E)] to `COC(C(=NOCC(C)C)C(O)C(C)O)C1Cc2cc3cc(OC4CC(OC5CC(O)C(O)C(C)O5)C(O)C(C)O4)c(C)c(O)c3c(O)c2C(=O)C1OC1CC(OC2CC(OC3CC(C)(O)C(O)C(C)O3)C(O)C(C)O2)C(O)C(C)O1` (centres unmarked) [MTM (7E)], the “PC:TC32 (cellular selectivity)” value falls from 1.28 to 1.04.

Going from `COC(C(=NOC[Si](C)(C)C)C(O)C(C)O)C1Cc2cc3cc(OC4CC(OC5CC(O)C(O)C(C)O5)C(O)C(C)O4)c(C)c(O)c3c(O)c2C(=O)C1OC1CC(OC2CC(OC3CC(C)(O)C(O)C(C)O3)C(O)C(C)O2)C(O)C(C)O1` (centres unmarked) [MTM (5Z)] to `COC(C(=NOCC(C)C)C(O)C(C)O)C1Cc2cc3cc(OC4CC(OC5CC(O)C(O)C(C)O5)C(O)C(C)O4)c(C)c(O)c3c(O)c2C(=O)C1OC1CC(OC2CC(OC3CC(C)(O)C(O)C(C)O3)C(O)C(C)O2)C(O)C(C)O1` (centres unmarked) [MTM (7Z)], the “PC:TC32 (cellular selectivity)” value rises from 0.68 to 1.15.

Going from `COC(C(=NOCc1ccc([N+](=O)[O-])cc1)C(O)C(C)O)C1Cc2cc3cc(OC4CC(OC5CC(O)C(O)C(C)O5)C(O)C(C)O4)c(C)c(O)c3c(O)c2C(=O)C1OC1CC(OC2CC(OC3CC(C)(O)C(O)C(C)O3)C(O)C(C)O2)C(O)C(C)O1` (centres unmarked) [MTM (11)] to `COc1ccc(CON=C(C(O)C(C)O)C(OC)C2Cc3cc4cc(OC5CC(OC6CC(O)C(O)C(C)O6)C(O)C(C)O5)c(C)c(O)c4c(O)c3C(=O)C2OC2CC(OC3CC(OC4CC(C)(O)C(O)C(C)O4)C(O)C(C)O3)C(O)C(C)O2)cc1` (centres unmarked) [MTM (14E)], the “PC:TC32 (cellular selectivity)” value rises from 1.30 to 2.05.

First: COc1ccc(CON=C(C(O)C(C)O)C(OC)C2Cc3cc4cc(OC5CC(OC6CC(O)C(O)C(C)O6)C(O)C(C)O5)c(C)c(O)c4c(O)c3C(=O)C2OC2CC(OC3CC(OC4CC(C)(O)C(O)C(C)O4)C(O)C(C)O3)C(O)C(C)O2)cc1 (centres unmarked) [MTM (14Z)]
Second: COC(C(=NOCCOc1ccc(C(F)(F)F)cc1)C(O)C(C)O)C1Cc2cc3cc(OC4CC(OC5CC(O)C(O)C(C)O5)C(O)C(C)O4)c(C)c(O)c3c(O)c2C(=O)C1OC1CC(OC2CC(OC3CC(C)(O)C(O)C(C)O3)C(O)C(C)O2)C(O)C(C)O1 (centres unmarked) [MTM (16)]
The “PC:TC32 (cellular selectivity)” value of the first is lower: 2.91 for the first, 7.91 for the second.

First: COC(C(=NOC(C)(C)C)C(O)C(C)O)C1Cc2cc3cc(OC4CC(OC5CC(O)C(O)C(C)O5)C(O)C(C)O4)c(C)c(O)c3c(O)c2C(=O)C1OC1CC(OC2CC(OC3CC(C)(O)C(O)C(C)O3)C(O)C(C)O2)C(O)C(C)O1 (centres unmarked) [MTM (15E)]
Second: C#CCON=C(C(O)C(C)O)C(OC)C1Cc2cc3cc(OC4CC(OC5CC(O)C(O)C(C)O5)C(O)C(C)O4)c(C)c(O)c3c(O)c2C(=O)C1OC1CC(OC2CC(OC3CC(C)(O)C(O)C(C)O3)C(O)C(C)O2)C(O)C(C)O1 (centres unmarked) [MTM (17E)]
The “PC:TC32 (cellular selectivity)” value of the first is lower: 1.87 for the first, 2.40 for the second.

Compared with `COC(C(=NOC(C)(C)C)C(O)C(C)O)C1Cc2cc3cc(OC4CC(OC5CC(O)C(O)C(C)O5)C(O)C(C)O4)c(C)c(O)c3c(O)c2C(=O)C1OC1CC(OC2CC(OC3CC(C)(O)C(O)C(C)O3)C(O)C(C)O2)C(O)C(C)O1` (centres unmarked) [MTM (15Z)], `C#CCON=C(C(O)C(C)O)C(OC)C1Cc2cc3cc(OC4CC(OC5CC(O)C(O)C(C)O5)C(O)C(C)O4)c(C)c(O)c3c(O)c2C(=O)C1OC1CC(OC2CC(OC3CC(C)(O)C(O)C(C)O3)C(O)C(C)O2)C(O)C(C)O1` (centres unmarked) [MTM (17Z)] is lower in “PC:TC32 (cellular selectivity)” value: 2.25 for the first, 1.89 for the second.

First: COC(C(=NOCC(=O)NCCc1c[nH]c2ccccc12)C(O)C(C)O)C1Cc2cc3cc(OC4CC(OC5CC(O)C(O)C(C)O5)C(O)C(C)O4)c(C)c(O)c3c(O)c2C(=O)C1OC1CC(OC2CC(OC3CC(C)(O)C(O)C(C)O3)C(O)C(C)O2)C(O)C(C)O1 (centres unmarked) [MTM (18)]
Second: COC(C(=NOCCc1c[nH]c2ccccc12)C(O)C(C)O)C1Cc2cc3cc(OC4CC(OC5CC(O)C(O)C(C)O5)C(O)C(C)O4)c(C)c(O)c3c(O)c2C(=O)C1OC1CC(OC2CC(OC3CC(C)(O)C(O)C(C)O3)C(O)C(C)O2)C(O)C(C)O1 (centres unmarked) [MTM (19)]
The “PC:TC32 (cellular selectivity)” value of the first is higher: 6.44 for the first, 1.70 for the second.

Going from `COC(C(=NOCCc1c[nH]c2ccccc12)C(O)C(C)O)C1Cc2cc3cc(OC4CC(OC5CC(O)C(O)C(C)O5)C(O)C(C)O4)c(C)c(O)c3c(O)c2C(=O)C1OC1CC(OC2CC(OC3CC(C)(O)C(O)C(C)O3)C(O)C(C)O2)C(O)C(C)O1` (centres unmarked) [MTM (19E)] to `COC(C(=NOCCCc1c[nH]c2ccccc12)C(O)C(C)O)C1Cc2cc3cc(OC4CC(OC5CC(O)C(O)C(C)O5)C(O)C(C)O4)c(C)c(O)c3c(O)c2C(=O)C1OC1CC(OC2CC(OC3CC(C)(O)C(O)C(C)O3)C(O)C(C)O2)C(O)C(C)O1` (centres unmarked) [MTM (21)], the “PC:TC32 (cellular selectivity)” value falls from 1.40 to 1.38.

Going from `COC(C(=NOCCCCc1c[nH]c2ccccc12)C(O)C(C)O)C1Cc2cc3cc(OC4CC(OC5CC(O)C(O)C(C)O5)C(O)C(C)O4)c(C)c(O)c3c(O)c2C(=O)C1OC1CC(OC2CC(OC3CC(C)(O)C(O)C(C)O3)C(O)C(C)O2)C(O)C(C)O1` (centres unmarked) [MTM (22)] to `COC(=O)C(Cc1cn(C)c2ccccc12)NC(=O)CON=C(C(O)C(C)O)C(OC)C1Cc2cc3cc(OC4CC(OC5CC(O)C(O)C(C)O5)C(O)C(C)O4)c(C)c(O)c3c(O)c2C(=O)C1OC1CC(OC2CC(OC3CC(C)(O)C(O)C(C)O3)C(O)C(C)O2)C(O)C(C)O1` (centres unmarked) [MTM (26)], the “PC:TC32 (cellular selectivity)” value rises from 1.54 to 5.64.

Going from `COC(=O)C(Cc1c[nH]c2ccccc12)NC(=O)C(Cc1ccccc1)NC(=O)CON=C(C(O)C(C)O)C(OC)C1Cc2cc3cc(OC4CC(OC5CC(O)C(O)C(C)O5)C(O)C(C)O4)c(C)c(O)c3c(O)c2C(=O)C1OC1CC(OC2CC(OC3CC(C)(O)C(O)C(C)O3)C(O)C(C)O2)C(O)C(C)O1` (centres unmarked) [MTM (23)] to `COC(=O)C(Cc1ccccc1)NC(=O)C(Cc1c[nH]c2ccccc12)NC(=O)CON=C(C(O)C(C)O)C(OC)C1Cc2cc3cc(OC4CC(OC5CC(O)C(O)C(C)O5)C(O)C(C)O4)c(C)c(O)c3c(O)c2C(=O)C1OC1CC(OC2CC(OC3CC(C)(O)C(O)C(C)O3)C(O)C(C)O2)C(O)C(C)O1` (centres unmarked) [MTM (25)], the “PC:TC32 (cellular selectivity)” value falls from 7.31 to 5.98.

First: COC(=O)C(Cc1c[nH]c2ccccc12)NC(=O)C(Cc1c[nH]c2ccccc12)NC(=O)CON=C(C(O)C(C)O)C(OC)C1Cc2cc3cc(OC4CC(OC5CC(O)C(O)C(C)O5)C(O)C(C)O4)c(C)c(O)c3c(O)c2C(=O)C1OC1CC(OC2CC(OC3CC(C)(O)C(O)C(C)O3)C(O)C(C)O2)C(O)C(C)O1 (centres unmarked) [MTM (24)]
Second: COC(=O)C(Cc1ccccc1)NC(=O)C(Cc1ccccc1)NC(=O)CON=C(C(O)C(C)O)C(OC)C1Cc2cc3cc(OC4CC(OC5CC(O)C(O)C(C)O5)C(O)C(C)O4)c(C)c(O)c3c(O)c2C(=O)C1OC1CC(OC2CC(OC3CC(C)(O)C(O)C(C)O3)C(O)C(C)O2)C(O)C(C)O1 (centres unmarked) [MTM (28)]
The “PC:TC32 (cellular selectivity)” value of the first is lower: 6.9 for the first, 11.68 for the second.

With `COC(=O)C(Cc1ccccc1)NC(=O)CON=C(C(O)C(C)O)C(OC)C1Cc2cc3cc(OC4CC(OC5CC(O)C(O)C(C)O5)C(O)C(C)O4)c(C)c(O)c3c(O)c2C(=O)C1OC1CC(OC2CC(OC3CC(C)(O)C(O)C(C)O3)C(O)C(C)O2)C(O)C(C)O1` (centres unmarked) [MTM (27)] the “PC:TC32 (cellular selectivity)” value was 7.06.
